Type in all cases: cell-based
Assay [1] relates to human gingival keratinocytes (Gie-No3-B11), P. gingivalis OMV. The assay can be described thus: Infection of human gingival keratinocytes by fluorescence-label P. gingivalis outer membrane vesicles (OMV). As to conditions: for inhibition at 100000 µM: concentration 100 mM. On the procedure:
(§1) One method to assess the potential of dicarboxylic acids to reduce gum disease and improve health was to assess the infection potential of gingival keratinocytes. In this model, human gingival keratinocytes (Gie-No3-B11, purchased from Creative Bioarray, Shirley, N.Y.) were maintained in a 37° C. incubator with 5% CO2. Cells were seeded in 100 μL cell suspension to each well (2K cells/well). Cells were treated 24 hours after seeding. Growth medium alone or growth medium with solvent vehicle was used as a negative control. Positive controls are either fluorescent E. coli LPS, or fluorescent S. minnesota LPS (https://corporate.thermofisher.com/us/en/index.html), fluorescence-label P. gingivalis outer membrane vesicles (OMV) with or without medium or solvent vehicle. P. gingivalis OMV was isolated following procedures described by Cecil et al. 2016 (Jessica D. Cecil, Neil M. O'Brien-Simpson, Jason C. Lenzo, James A. Holden, Yu-Yen Chen, William Singleton, Katelyn Gause, Yan Yan, Frank Caruso, and Eric C. Reynolds. Differential Responses of Pattern Recognition Receptors to Outer Membrane Vesicles of Three Periodontal Pathogens. iPLoS One. 2016; 11(4): e0151967). The OMV was stained with Lipophilic Tracer DiO following manufacturer's instruction (https://corporate.thermofisher.com/us/en/index.html). Compounds were dissolved in water and diluted in culture medium (all dilutions are deep yellow, or very acidic). All compounds and fluorescent LPS or OMV were added to cells at the same time. It is worth mentioning that cell culture medium changed immediately following adding the compounds from pink (pH7-7.4) to deep yellow (acidic). Images were taken in four sites in each well at a 3-hour interval over 48 to 120 hours in Incucyte® Live-Cell Analysis Systems (https://www.sartorius.com/en/products/live-cell-imaging-analysis/live-cell-analysis-instruments#id-789214). Data were processed and analyzed using R-programs.

Assay [2] concerns human gingival keratinocytes (Gie-No3-B11), S. minnesota LPS. The assay can be described thus: Infection of human gingival keratinocytes by fluorescent S. minnesota LPS. On the procedure:
as §1

The test system of assay [3] is human gingival keratinocytes (Gie-No3-B11), E. coli LPS. The assay can be described thus: Infection of human gingival keratinocytes by fluorescent E. coli LPS. The protocol:
as §1

Setting [4] is: Homo sapiens, Keratinocyte, concentration 5 mM.
[5] abbreviates: Homo sapiens, Keratinocyte, concentration 11.11 mM.
Setting [6] is: Homo sapiens, Keratinocyte, concentration 7.5 mM.
Setting [7] is: Homo sapiens, Keratinocyte, concentration 125 μM.

What is called inhibition is the percentage by which the read-out fell short of the control. A higher inhibition goes with strong suppression.

For the compound `O=C(O)CCC(=O)O` [Succinic_acid, succinic acid], in assay [1] (Homo sapiens, Keratinocyte, concentration 2 mM), the inhibition at 2000 µM turned out to be 73%. In assay [2] (Homo sapiens, Keratinocyte, concentration 1 mM), the inhibition at 1000 µM was 42.3%.
Take `O=C(O)CC(=O)O` [Malonic_acid, malonic acid]: the inhibition at 5000 µM in assay [3] (setting [4]) was found to be 35.9%. The inhibition at 11110 µM in assay [1] (setting [5]) was found to be 69.3%.
In assay [3] (setting [4]), `CC(C)(C(=O)O)C(=O)O` [Dimethylmalonic_Acid, dimethylmalonic acid] returned an inhibition at 5000 µM of 33.8%. Besides, in assay [1] (setting [5]), at 11110 µM the inhibition was 81.3%. The compound further showed an inhibition at 7500 µM in assay [2] (setting [6]) of 54.5%.
As for `O=C(O)C(O)C(O)C(=O)O` (stereo not drawn) [DL_Tartaric_acid, DL tartaric acid], the values for the Inhibition % in assay [1] (concentration 1 mM) and in assay [2] (concentration 1 mM) were 57.7% and 26.4%, respectively.
In assay [3] (setting [4]), `CC(C(=O)O)C(=O)O` [Methyl_malonic_acid, methylmalonic acid] returned an inhibition at 5000 µM of 30.7%. Testing at 11110 µM in assay [1] (setting [5]) gave an inhibition of 63.6%. In assay [2] (Homo sapiens, Keratinocyte, concentration 2.5 mM), this compound showed an inhibition at 2500 µM of 28.7%.
In assay [3] (setting [4]), `O=C(O)/C=C\C(=O)O` [Maleic_acid, maleic acid] registered an inhibition at 5000 µM of 63.8%. In addition, the inhibition at 100000 µM in assay [1] (Homo sapiens, Keratinocyte) amounted to 83.3%. In assay [2] (Homo sapiens, Keratinocyte, concentration 3 mM), the inhibition at 3000 µM amounted to 73.8%.
Take `O=C(O)[C@H](O)[C@@H](O)C(=O)O` [L_+_Tartaric_acid, L-tartaric acid]: the values for the Inhibition % in assay [1] (concentration 2.5 mM) and in assay [2] (concentration 10 mM) were 73.6% and 52.1%, respectively.
Regarding `O=C(O)/C=C/C(=O)O` [Fumaric_acid, fumaric acid], the inhibition at 7500 µM in assay [3] (setting [6]) worked out at 31%; in assay [2] (setting [6]), 71.9%. This compound gave an inhibition at 33330 µM in assay [1] (Homo sapiens, Keratinocyte, concentration 33.33 mM) of 53.1%.
As to `O.O=C([O-])C(=O)[O-].[K+].[K+]` [Potassium_oxalate_monohydrate, Potassium Oxalate Monohydrate], the Inhibition % in assay [3] (concentration 125 μM) was determined as 21.5%; in assay [2] (concentration 125 μM), 41.5%.
As for `O=C(O)C(=O)O` [Oxalic_acid, oxalic acid], the inhibition at 125 µM came out at 38.2% in assay [3] (setting [7]) and 22.5% in assay [2] (setting [7]). In assay [1] (Homo sapiens, Keratinocyte), this compound displayed an inhibition at 100000 µM of 32.8%.
Regarding `O=C(O)CC(O)C(=O)O` (stereo not drawn) [DL_Maleic_acid], the Inhibition % in assay [3] (concentration 5 mM) is recorded as 36.3%; in assay [1] (concentration 11.11 mM), 62.2%; in assay [2] (concentration 7.5 mM), 59.9%.
In assay [1] (setting [4]), `O=C(O)C(=O)C(=O)O` [Sodium_mesoxalate_monohydrate, Sodium Mesoxalate Monohydrate] registered an inhibition at 5000 µM of 44.3%.
